Target: SARM1 (ARM-SAM-TIR) (Homo sapiens (Human), UniProt Q6SZW1)
Assay: ARM-SAM-TIR SARM1 IC50 assay (NADase activity, NAD+ cleavage, RapidFire MS)
Format: biochemical
Conditions: ARM-SAM-TIR lysate 5 μg/mL, 2 h pre-incubation, 5 μM NAD+, 2 hr room temperature
Description: This Example describes an assay of ARM-SAM-TIR NADase activity and use of this assay to measure the efficacy of compounds of Formula I or Formula I′ to block SARM1 mediated NAD+ cleavage. This assay was optimized in such a way as to characterize the efficacy of the compounds in Formula I or Formula I′ to inhibit SARM1 activity and to calculate an IC50 value for each compound. This assay makes use of full length SARM1, which encompasses the ARM, SAM and TIR domains.
NRK1-HEK293T cells were seeded onto 150 cm^2 plates at 20×10^6 cells per plate. The next day, the cells were transfected with 15 μg ARM-SAM-TIR expression plasmid, SEQ ID NO: 1.
The cultures were supplemented with 1 mM NR at time of transfection to minimize toxicity from ARM-SAM-TIR overexpression. Forty-eight hours after transfection, cells were harvested, pelleted by centrifugation at 1,000 rpm (Sorvall ST 16R centrifuge, Thermo Fisher), and washed once with cold PBS (0.01 M phosphate buffered saline NaCl 0.138 M; KCl 0.0027 M; pH 7.4). The cells were resuspended in PBS with protease inhibitors (cOmplete™ protease inhibitor cocktail, Roche product #11873580001) and cell lysates were prepared by sonication (Branson Sonifer 450, output=3, 20 episodes of stroke). The lysates were centrifuged (12,000×g for 10 min at 4° C.) to remove cell debris and the supernatants (containing ARM-SAM-TIR protein) were stored at −80° C. for later use in the in vitro ARM-SAM-TIR NADase assay (see below). Protein concentration was determined by the Bicinchoninic (BCA) method and used to normalize lysate concentrations.
The enzymatic assay was performed in a 384-well polypropylene plate in Dulbecco's PBS buffer in a final assay volume of 20 μL. ARM-SAM-TIR lysate with a final concentration of 5 μg/mL was pre-incubated with the respective compound at 1% DMSO final assay concentration over 2 h at room temperature. The reaction was initiated by addition of 5 μM final assay concentration of NAD+ as substrate. After a 2 hr room temperature incubation, the reaction was terminated with 40 μL of stop solution of 7.5% trichloroactetic acid in acetonitrile. The NAD+ and ADPR concentrations were analyzed by a RapidFire High Throughput Mass Spectrometry System (Agilent Technologies, Santa Clara, Calif.) using an API4000 triple quadrupole mass spectrometer (AB Sciex Framingham, Mass.).

SARM1 (ARM-SAM-TIR), sequence (Q6SZW1 other isoform, or with tags, fused parts or gaps): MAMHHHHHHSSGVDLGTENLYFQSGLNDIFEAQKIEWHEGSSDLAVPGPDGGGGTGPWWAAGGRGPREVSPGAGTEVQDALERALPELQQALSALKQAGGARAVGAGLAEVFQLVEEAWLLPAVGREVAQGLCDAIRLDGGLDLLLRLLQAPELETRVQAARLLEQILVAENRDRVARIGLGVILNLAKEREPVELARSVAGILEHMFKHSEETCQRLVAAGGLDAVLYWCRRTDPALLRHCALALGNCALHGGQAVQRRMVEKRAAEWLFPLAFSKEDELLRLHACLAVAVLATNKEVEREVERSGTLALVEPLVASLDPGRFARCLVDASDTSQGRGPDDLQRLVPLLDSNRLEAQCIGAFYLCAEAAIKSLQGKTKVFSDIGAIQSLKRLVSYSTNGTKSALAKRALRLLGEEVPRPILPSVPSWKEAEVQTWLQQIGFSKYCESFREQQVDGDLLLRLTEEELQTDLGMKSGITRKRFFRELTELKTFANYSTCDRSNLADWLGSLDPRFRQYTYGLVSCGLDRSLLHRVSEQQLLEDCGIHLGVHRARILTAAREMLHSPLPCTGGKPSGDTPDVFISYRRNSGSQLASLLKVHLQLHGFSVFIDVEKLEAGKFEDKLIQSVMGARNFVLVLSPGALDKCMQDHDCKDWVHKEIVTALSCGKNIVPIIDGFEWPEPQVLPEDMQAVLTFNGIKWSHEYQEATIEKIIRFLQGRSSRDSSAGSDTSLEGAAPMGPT

Compound | IC50
O=C(CCc1ccc(C(F)(F)F)cc1)Nc1[nH]nc(-c2ccnnc2)c1Br [Example 158] | < 5 µM
O=C(CCc1ccc(Cl)s1)Nc1nc(-c2ccncc2)c[nH]1 [Example 159] | < 5 µM
O=C(NCc1cccc(Cl)c1)Nc1nnc(-c2ccncc2)[nH]1 [Example 160] | < 5 µM
NS(=O)(=O)c1c(-c2ccncc2)n[nH]c1NC(=O)CCc1ccc(Cl)cc1 [Example 161] | 5 to 15 µM
[2H]C([2H])(C(=O)Nc1cc(-c2ccncc2)n[nH]1)C([2H])([2H])c1ccc(Cl)cc1 [Example 162] | < 5 µM
Cn1cncc1-c1nnc(NC(=O)CCc2ccc(Cl)cc2)[nH]1 [Example 163] | < 5 µM
CN(Cc1ccc(Cl)cc1)C(=O)Nc1nnc(-c2ccncc2)[nH]1 [Example 164] | < 5 µM
O=C(NCc1ccc(Cl)nc1)Nc1nnc(-c2ccncc2)[nH]1 [Example 165] | < 5 µM
O=C(Nc1nnc(-c2ccncc2)[nH]1)N1CCc2nc(Cl)ccc2C1 [Example 166] | < 5 µM
O=C(CCc1ccc(Cl)cc1)Nc1[nH]nc(-c2ccncc2)c1Br [Example 167] | < 5 µM
O=C(CCc1ccc(Cl)cc1)Nc1[nH]nc(-c2ccncc2)c1F [Example 168] | < 5 µM
[2H]C([2H])(C(=O)Nc1nnc(-c2ccncc2)[nH]1)C([2H])([2H])c1ccc(Cl)cc1 [Example 169] | < 5 µM
[2H]C([2H])(C(=O)Nc1[nH]nc(-c2ccncc2)c1C)C([2H])([2H])c1ccc(Cl)cc1 [Example 170] | < 5 µM
[2H]C([2H])(C(=O)Nc1[nH]nc(-c2ccncc2)c1C)C([2H])([2H])c1ccc(Cl)nc1 [Example 171] | < 5 µM
O=C(CC1CCOc2cc(Cl)ccc21)Nc1cc(-c2ccncc2)n[nH]1 (stereo not drawn) [Example 172] | < 5 µM
Cc1c(-c2ccncc2)n[nH]c1NC(=O)CC1CCOc2cc(Cl)ccc21 (stereo not drawn) [Example 173] | < 5 µM
O=C(NCc1ccc(Cl)nc1)Nc1cc(-c2ccncc2)n[nH]1 [Example 174] | < 5 µM
NC(Cc1ccc(Cl)c(F)c1)C(=O)Nc1cc(-c2ccncc2)n[nH]1 (stereo not drawn) [Example 175] | < 5 µM
CN[C@@H](Cc1ccc(Cl)cc1)C(=O)Nc1cc(-c2ccncc2)n[nH]1 [Example 176] | < 5 µM
[2H]C([2H])(C(=O)Nc1[nH]nc(-c2ccnnc2)c1C)C([2H])([2H])c1ccc(Cl)cc1 [Example 177] | < 5 µM
[2H]C([2H])(C(=O)Nc1[nH]nc(-c2ccnnc2)c1C)C([2H])([2H])c1ccc(Cl)nc1 [Example 178] | < 5 µM
O=C(CC1CCOc2nc(Cl)ccc21)Nc1nnc(-c2ccncc2)[nH]1 (stereo not drawn) [Example 179] | < 5 µM
O=C(CC1CCOc2cc(Cl)ncc21)Nc1nnc(-c2ccncc2)[nH]1 (stereo not drawn) [Example 180] | < 5 µM
O=C(Nc1cc(-c2ccncc2)n[nH]1)[C@H]1C[C@H](c2ccc(Cl)cc2)C1 [Example 181] | < 5 µM

Compound | IC50
Cc1c(-c2ccncc2)n[nH]c1NC(=O)[C@H]1C[C@H](c2ccc(Cl)cc2)C1 [Example 182] | < 5 µM
O=C(Nc1nnc(-c2ccncc2)[nH]1)NC1CCOc2cc(Cl)ccc21 (stereo not drawn) [Example 183] | 5 to 15 µM
O=C(Nc1nnc(-c2ccncc2)[nH]1)NC1CCOc2nc(Cl)ccc21 (stereo not drawn) [Example 184] | 5 to 15 µM
O=C(Nc1nnc(-c2ccncc2)[nH]1)N1CCc2cc(Cl)ccc2C1 [Example 185] | < 5 µM
N#Cc1c(-c2ccncc2)n[nH]c1NC(=O)CCc1ccc(Cl)cc1 [Example 186] | < 5 µM
CCOC(=O)c1c(-c2ccncc2)n[nH]c1NC(=O)CCc1ccc(Cl)cc1 [Example 187] | < 5 µM
Cc1c(-c2ccncc2)n[nH]c1NC(=O)CCc1ccc(Cl)c(F)c1 [Example 188] | < 5 µM
[2H]C([2H])(C(=O)Nc1cc(-c2ccnnc2)n[nH]1)C([2H])([2H])c1ccc(Cl)cc1 [Example 189] | < 5 µM
[2H]C([2H])(C(=O)Nc1cc(-c2ccnnc2)n[nH]1)C([2H])([2H])c1ccc(Cl)nc1 [Example 190] | < 5 µM
[2H]C([2H])(C(=O)Nc1nnc(-c2ccnnc2)[nH]1)C([2H])([2H])c1ccc(Cl)nc1 [Example 191] | < 5 µM
O=C(CC1CCOc2cc(Cl)ccc21)Nc1cc(-c2ccnnc2)n[nH]1 (stereo not drawn) [Example 192] | < 5 µM
O=C(CC1CCOc2cc(Cl)ccc21)Nc1nnc(-c2ccnnc2)[nH]1 (stereo not drawn) [Example 193] | < 5 µM
O=C(CCc1ccc(Cl)cc1)Nc1[nH]nc(-c2ccncc2)c1CO [Example 194] | < 5 µM
N#Cc1c(-c2ccncc2)n[nH]c1NC(=O)CCc1ccc(Cl)nc1 [Example 195] | < 5 µM
O=C(Nc1nnc(-c2ccnnc2)[nH]1)[C@H]1C[C@H](c2ccc(Cl)cc2)C1 [Example 196] | < 5 µM
O=C(Nc1cc(-c2ccnnc2)n[nH]1)[C@H]1C[C@H](c2ccc(Cl)cc2)C1 [Example 197] | < 5 µM
Cc1cnccc1-c1cc(NC(=O)CCc2ccc(Cl)cc2)[nH]n1 [Example 198] | < 5 µM
Cc1c(-c2ccncc2)n[nH]c1NC(=O)CC1Cc2ccccc2C1 [Example 199] | 5 to 15 µM
Cc1c(-c2ccncc2)n[nH]c1NC(=O)CCc1ccc(C(F)(F)F)cc1 [Example 200] | < 5 µM
Cc1c(-c2ccncc2)n[nH]c1NC(=O)[C@@H](N)Cc1ccc(Cl)cc1 [Example 201] | < 5 µM
Cc1c(-c2ccncc2)n[nH]c1NC(=O)CCc1ccc(Cl)s1 [Example 202] | < 5 µM
O=C(CCc1ccc(Cl)cc1)Nc1[nH]nc(-c2ccncc2)c1C1CCC1 [Example 203] | < 5 µM
O=C(CCc1ccc(Cl)nc1)Nc1[nH]nc(-c2ccncc2)c1C1CCC1 [Example 204] | 5 to 15 µM
Cc1c(-c2ccnnc2)n[nH]c1NC(=O)CCc1ccc(Cl)nc1 [Example 205] | < 5 µM

Compound | IC50
O=C(C[C@H]1CCOc2cc(Cl)ccc21)Nc1cc(-c2ccnnc2)n[nH]1 [Example 206] | < 5 µM
O=C(C[C@@H]1CCOc2cc(Cl)ccc21)Nc1cc(-c2ccnnc2)n[nH]1 [Example 207] | < 5 µM
O=C(C[C@H]1CCOc2cc(Cl)ccc21)Nc1nnc(-c2ccncc2)[nH]1 [Example 208] | < 5 µM
O=C(C[C@@H]1CCOc2cc(Cl)ccc21)Nc1nnc(-c2ccncc2)[nH]1 [Example 209] | < 5 µM
O=C(Nc1cc(-c2ccnnc2)n[nH]1)[C@H]1C[C@H](c2ccc(Cl)nc2)C1 [Example 210] | < 5 µM
N#Cc1c(-c2ccncc2)c[nH]c1NC(=O)CCc1ccc(Cl)nc1 [Example 211] | < 5 µM
O=C(C[C@H]1CCOc2cc(Cl)ccc21)Nc1cc(-c2ccncc2)n[nH]1 [Example 212] | < 5 µM
O=C(C[C@@H]1CCOc2cc(Cl)ccc21)Nc1cc(-c2ccncc2)n[nH]1 [Example 213] | < 5 µM
Cc1c(-c2ccncc2)n[nH]c1NC(=O)C[C@H]1CCOc2cc(Cl)ccc21 [Example 214] | < 5 µM
Cc1c(-c2ccncc2)n[nH]c1NC(=O)C[C@@H]1CCOc2cc(Cl)ccc21 [Example 215] | < 5 µM
Cc1c(-c2ccncc2)n[nH]c1NC(=O)N1CC(c2ccccc2)C1 [Example 216] | < 5 µM
Cc1cnccc1-c1nnc(NC(=O)CCc2ccc(Cl)cc2)[nH]1 [Example 217] | < 5 µM
Cc1c(-c2ccncc2)n[nH]c1NC(=O)N1CC(c2ccc(Cl)cc2)C1 [Example 218] | < 5 µM
CCc1c(-c2ccncc2)n[nH]c1NC(=O)CCc1ccc(Cl)nc1 [Example 219] | < 5 µM
Cc1c(-c2ccncc2)n[nH]c1NC(=O)C1CN(c2ccc(Cl)cc2)C1 [Example 220] | 5 to 15 µM
Cc1c(-c2ccncc2)n[nH]c1NC(=O)CCc1ccc(F)cc1 [Example 221] | < 5 µM
Cc1c(-c2ccncc2)n[nH]c1NC(=O)CCc1cc(F)cc(F)c1 [Example 222] | < 5 µM
Cc1c(-c2ccncc2)n[nH]c1NC(=O)C(O)Cc1ccc(Cl)cc1 (stereo not drawn) [Example 223] | < 5 µM
Cc1c(-c2ccncc2)n[nH]c1NC(=O)CN(C)c1ccc(Cl)cc1 [Example 224] | 5 to 15 µM
N#Cc1cnccc1-c1nnc(NC(=O)CCc2ccc(Cl)cc2)[nH]1 [Example 225] | < 5 µM
O=C(Nc1nnc(-c2ccncc2)[nH]1)NC1CCOc2cc(Cl)ncc21 (stereo not drawn) [Example 226] | < 5 µM
O=C(CCc1ccc(Cl)cc1)Nc1[nH]nc(-c2ccncc2)c1C1CC1 [Example 227] | < 5 µM
O=C(CCc1ccc(Cl)nc1)Nc1[nH]nc(-c2ccncc2)c1C1CC1 [Example 228] | < 5 µM
CCOC(=O)Cc1c(-c2ccncc2)n[nH]c1NC(=O)CCc1ccc(Cl)cc1 [Example 229] | < 5 µM

From US12331033B2, “Inhibitors of SARM1” (Disarm Therapeutics, Inc., priority 2020, dated 2025)
